Laboratory results published in the supplement of paper PMC10307832.

What was measured:
Assay in all cases: relative viability (nuclei count vs DMSO), 5 days (fraction); higher = more cells survive
[1] = compound: Cn1cc(-c2cnn3c(N)c(Br)c([C@@H]4CCCNC4)nc23)cn1 + CC1(C)CCC(c2ccc(Cl)cc2)=C(CN2CCN(c3ccc(C(=O)NS(=O)(=O)c4ccc(N[C@H](CCN5CCOCC5)CSc5ccccc5)c(S(=O)(=O)C(F)(F)F)c4)cc3)CC2)C1 [Navitoclax] (partner 0.5 µM)
Procedure, shortened: (§1)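 Relative viability was taken as the ratio of nuclei in treated wells to nuclei in vehicle wells. Lung cancer cell lines in 1536-well plates received compounds by pin tool one day after seeding, either one drug alone or a fixed anchor-drug dose plus five library-drug doses (not always all listed) in √10 steps. Nuclei were counted on 4× images after 5 days of treatment, and values are medians of duplicate plates.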

[2] = compound: Cn1cc(-c2cnn3c(N)c(Br)c([C@@H]4CCCNC4)nc23)cn1 + CCNC(=O)c1noc(-c2cc(C(C)C)c(O)cc2O)c1-c1ccc(CN2CCOCC2)cc1 [Luminespib] (partner 0.01 µM)
Procedure, shortened: as §1

[3] = compound: Cn1cc(-c2cnn3c(N)c(Br)c([C@@H]4CCCNC4)nc23)cn1 + COc1cc2c(Oc3ccc(NC(=O)C4(C(=O)Nc5ccc(F)cc5)CC4)cc3F)ccnc2cc1OCCCN1CCOCC1 [Foretinib] (partner 0.25 µM)
Procedure, shortened: as §1

[4] = compound: Cn1cc(-c2cnn3c(N)c(Br)c([C@@H]4CCCNC4)nc23)cn1 + C[C@]1(O)C[C@@H](c2nc(-c3ccc4ccc(-c5ccccc5)nc4c3)c3c(N)nccn32)C1 [Linsitinib] (partner 1 µM)
Procedure, shortened: as §1

Cell Line | relative viability ([1]; first compound 0.05 µM) | relative viability ([1]; first compound 0.1581 µM) | relative viability ([1]; first compound 0.5 µM) | relative viability ([1]; first compound 1.581 µM) | relative viability ([1]; first compound 5 µM) | relative viability ([2]; first compound 0.05 µM) | relative viability ([2]; first compound 0.1581 µM) | relative viability ([2]; first compound 0.5 µM) | relative viability ([2]; first compound 1.581 µM) | relative viability ([2]; first compound 5 µM) | relative viability ([3]; first compound 0.05 µM) | relative viability ([3]; first compound 0.1581 µM) | relative viability ([3]; first compound 0.5 µM) | relative viability ([3]; first compound 1.581 µM) | relative viability ([3]; first compound 5 µM) | relative viability ([4]; first compound 0.05 µM) | relative viability ([4]; first compound 0.1581 µM) | relative viability ([4]; first compound 0.5 µM) | relative viability ([4]; first compound 1.581 µM) | relative viability ([4]; first compound 5 µM)
LU99A | 0.962 | 0.875 | 0.801 | 0.699 | 0.601 | 0.31 | 0.202 | 0.248 | 0.162 | 0.223 | 0.805 | 0.768 | 0.821 | 0.706 | 0.716 | 0.533 | 0.622 | 0.496 | 0.557 | 0.422
LXF-289 | 0.96 | 1.06 | 1.07 | 0.906 | 1.02 | 0.729 | 0.803 | 0.645 | 0.648 | 0.55 | 0.996 | 1.02 | 1 | 0.94 | 1.03 | 0.976 | 1.07 | 1.07 | 0.903 | 1.04
NCI-H23 | 1.01 | 1.04 | 0.72 | 0.602 | 0.342 | 0.22 | 0.205 | 0.187 | 0.215 | 0.201 | 1.02 | 0.987 | 0.907 | 0.615 | 0.53 | 0.575 | 0.642 | 0.466 | 0.449 | 0.244
NCI-H322M | 1.08 | 1.24 | 1.18 | 1.2 | 1.19 | 0.71 | 0.33 | 0.426 | 0.376 | 0.279 | 0.91 | 0.62 | 0.854 | 0.563 | 0.297 | 0.86 | 0.943 | 0.889 | 0.864 | 0.828
NCI-H441 | 0.534 | 0.857 | 0.671 | – | 0.696 | 0.373 | 0.348 | 0.31 | 0.254 | 0.302 | 0.99 | 1.38 | 1.13 | 0.957 | 0.725 | 0.802 | 0.346 | 0.461 | 0.56 | 0.563
NCI-H460 | 1.04 | 1.32 | 0.972 | 0.749 | 0.448 | 0.0336 | 0.0269 | 0.0266 | 0.0285 | 0.0325 | 0.957 | 1.08 | 1.03 | 0.914 | 0.666 | 0.611 | 0.68 | 0.728 | 0.217 | 0.183
NCI-H520 | 1.21 | 1.01 | 0.966 | 1.13 | 0.883 | 0.207 | 0.206 | 0.217 | 0.219 | 0.221 | 0.671 | 0.836 | 0.751 | 0.664 | 0.58 | 0.991 | 0.939 | 0.931 | 0.733 | 0.561
NCI-H596 | 1.01 | 1.02 | 1.13 | 0.847 | 0.904 | 0.992 | 0.971 | 0.965 | 0.894 | 0.716 | 0.871 | 0.797 | 0.778 | 0.83 | 0.674 | 1.07 | 1.11 | 1.01 | 0.986 | 1.16
